By IC50 is commonly meant the concentration that gives 50% inhibition.

Data set [1] deals with RAW264.7. Briefly: Antiinflammatory activity in mouse RAW264.7 cells assessed as inhibition of LPS-induced NO production pretreated with compound for 2 hrs followed by LPS stimulation measured after 18 hrs by gGriess reagent based assay. The data set is classed as functional, cell-based. (In general: The Griess reaction detects nitrite, a stable product of nitric oxide.)
Data set [2] relates to RAW264.7. Briefly: Cytotoxicity against mouse RAW264.7 cells assessed as reduction in cell viability at 100 uM measured after 24 hrs by MTT assay. The data set is classed as cell-based. As to conditions: raw264.7, 24 h. A general note: Formazan colour is commonly taken as a measure of viable cells.

Consider `COc1cc([C@@H](O)[C@@H](O)CO)cc(OC)c1O[C@@H]1O[C@H](CO)[C@@H](O)[C@H](O)[C@H]1O`, for which the IC50 with RAW264.7 [1] came to 15.4 µM. The Activity entry in the data set on RAW264.7 [2] is on record as “Non-Toxic”.
As for `COC/C=C/c1cc(OC)c(O[C@@H]2O[C@H](CO)[C@@H](O)[C@H](O)[C@H]2O)c(OC)c1`, the IC50 in the data set with RAW264.7 [1] turned out to be 14.6 µM. In addition, the Activity entry in the data set on RAW264.7 [2] was “Non-Toxic”.
The like results for `COc1cc(/C=C/C(=O)O)cc(OC)c1O[C@@H]1O[C@H](CO)[C@@H](O)[C@H](O)[C@H]1O` were, in that order, 18.7 µM and “Non-Toxic”.
With `COc1cc([C@H](O)[C@H](O)CO)cc(OC)c1O[C@@H]1O[C@H](CO)[C@@H](O)[C@H](O)[C@H]1O`, the IC50 with RAW264.7 [1] turned out to be 25.1 µM. In addition, in the data set with RAW264.7 [2], the Activity result was “Non-Toxic”.
The like results for `COc1cc(/C=C/COC/C=C/c2cc(OC)c(O[C@@H]3O[C@H](CO)[C@@H](O)[C@H](O)[C@H]3O)c(OC)c2)cc(OC)c1O[C@@H]1O[C@H](CO)[C@@H](O)[C@H](O)[C@H]1O` were, in that order, over 100 µM and “Non-Toxic”.
The like results for `COC(=O)/C=C/c1cc(OC)c(O[C@@H]2O[C@H](CO)[C@@H](O)[C@H](O)[C@H]2O)c(OC)c1` were, in that order, 20.4 µM and “Non-Toxic”.
For `CCOC/C=C/c1cc(OC)c(O[C@@H]2O[C@H](CO)[C@@H](O)[C@H](O)[C@H]2O)c(OC)c1` the same measures were over 100 µM and “Non-Toxic”.
On to `COc1cc(/C=C/CO[C@@H]2O[C@H](CO)[C@@H](O)[C@H](O)[C@H]2O)cc(OC)c1O[C@@H]1O[C@H](CO)[C@@H](O)[C@H](O)[C@H]1O`, for which, in the data set on RAW264.7 [1], the IC50 was 16.6 µM. The Activity entry in the data set on RAW264.7 [2] is listed as “Non-Toxic”.
The like results for `CCCCOC/C=C/c1cc(OC)c(O[C@@H]2O[C@H](CO)[C@@H](O)[C@H](O)[C@H]2O)c(OC)c1` were, in that order, over 100 µM and “Non-Toxic”.
In the case of `Cc1ccc(-c2cc(C(F)(F)F)nn2-c2ccc(S(N)(=O)=O)cc2)cc1` [CELECOXIB], in the data set with RAW264.7 [1], the IC50 came out at 2.3 µM.
As for `COc1cc(CCCO)cc(OC)c1O[C@@H]1O[C@H](CO)[C@@H](O)[C@H](O)[C@H]1O` [DIHYDROSYRINGIN], the IC50 with RAW264.7 [1] is over 100 µM. Moreover, the Activity entry in the data set with RAW264.7 [2] is “Non-Toxic”.
For `COc1cc(/C=C/C=O)cc(OC)c1O[C@@H]1O[C@H](CO)[C@@H](O)[C@H](O)[C@H]1O` [SINAPALDEHYDE GLUCOSIDE] the same measures were over 100 µM and “Non-Toxic”.
On to `COc1cc(/C=C/CO)cc(OC)c1O[C@@H]1O[C@H](CO)[C@@H](O)[C@H](O)[C@H]1O` [SYRINGIN], for which, in the data set on RAW264.7 [1], the IC50 worked out at 17.2 µM. The Activity result in the data set with RAW264.7 [2] is given as “Non-Toxic”.

For the origin of these results see ChEMBL document CHEMBL4840348, “Total Syntheses and Anti-inflammatory Activities of Syringin and Its Natural Analogues” (J Nat Prod, 2021).
